Measurements from patent US10851082B2, “Substituted aromatic n-heterocyclic compounds as inhibitors of mitogen-activated protein kinase interacting kinase 1 (MNK1) and 2 (MNK2)” (Northwestern University, priority 2015, dated 2020).
Read-outs that look alike come from different tables or passages of the source.

Experiments:
Mnk1 = Mnk1 (Homo sapiens (Human), UniProt Q9BUB5); assay: Mnk1 kinase inhibition, ADP-Glo ADP monitoring assay; format: biochemical
Mnk2 = Mnk2 (Homo sapiens (Human), UniProt Q9HBH9); assay: Mnk2 kinase inhibition, ADP-Glo ADP monitoring assay; format: biochemical
[1] = unit inferred, read-out: Mnk1 IC50
[2] = ADP-Glo kinase assay, unit inferred, read-out: Mnk2 IC50
[3] = read-out: Mnk1 inhibition IC50 (+,++,+++)
[4] = ADP-Glo kinase assay, read-out: Mnk2 inhibition IC50 (+,++,+++)

Mnk1, sequence (Q9BUB5 whole entry): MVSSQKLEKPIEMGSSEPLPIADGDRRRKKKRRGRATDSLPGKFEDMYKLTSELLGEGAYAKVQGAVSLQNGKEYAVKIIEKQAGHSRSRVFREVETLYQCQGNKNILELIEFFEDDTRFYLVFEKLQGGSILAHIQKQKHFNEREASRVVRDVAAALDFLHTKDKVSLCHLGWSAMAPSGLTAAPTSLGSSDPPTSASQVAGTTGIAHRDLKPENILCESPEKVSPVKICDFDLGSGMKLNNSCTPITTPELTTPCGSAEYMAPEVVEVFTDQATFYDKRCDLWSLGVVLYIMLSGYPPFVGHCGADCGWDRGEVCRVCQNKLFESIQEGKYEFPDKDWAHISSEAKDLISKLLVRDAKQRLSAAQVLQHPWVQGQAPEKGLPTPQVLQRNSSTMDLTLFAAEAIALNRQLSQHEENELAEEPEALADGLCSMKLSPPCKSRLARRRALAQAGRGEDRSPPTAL
Mnk2, sequence (Q9HBH9 whole entry): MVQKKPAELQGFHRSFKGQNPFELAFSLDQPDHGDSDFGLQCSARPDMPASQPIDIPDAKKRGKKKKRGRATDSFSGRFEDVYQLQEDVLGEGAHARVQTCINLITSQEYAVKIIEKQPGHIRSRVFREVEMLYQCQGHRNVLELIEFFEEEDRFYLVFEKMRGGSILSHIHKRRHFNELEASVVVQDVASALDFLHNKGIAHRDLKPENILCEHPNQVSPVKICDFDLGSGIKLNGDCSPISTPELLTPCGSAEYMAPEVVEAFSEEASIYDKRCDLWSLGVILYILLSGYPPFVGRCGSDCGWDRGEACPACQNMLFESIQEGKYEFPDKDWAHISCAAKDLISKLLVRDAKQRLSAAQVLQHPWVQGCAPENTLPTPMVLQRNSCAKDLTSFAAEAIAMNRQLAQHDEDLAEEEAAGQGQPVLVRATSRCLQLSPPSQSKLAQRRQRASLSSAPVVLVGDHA

| Structure (SMILES) | IC50 (Mnk1; [3]) [µM] | IC50 (Mnk2; [4]) [µM] | also measured |
| --- | --- | --- | --- |
| N#Cc1cnc(NCCc2ccncc2)nc1-n1ccnc1 [NUCC-0196308] |  |  | IC50 (Mnk1; [1]): 2.1 µM; IC50 (Mnk2; [2]): 6.9 µM |
| COC(=O)c1cnc(NCCc2ccncc2)nc1-n1cnc2ccccc21 [NUCC-0196309] |  |  | IC50 (Mnk1; [1]): > 10 µM; IC50 (Mnk2; [2]): > 10 µM |
| CCOC(=O)c1cnc(NCCc2ccncc2)nc1-n1cnc2ccccc21 [NUCC-0196310] |  |  | IC50 (Mnk1; [1]): 2.1 µM; IC50 (Mnk2; [2]): 5.4 µM |
| Fc1ccc(CCNc2ncc(Cl)c(-n3cnc4ccccc43)n2)cc1 [NUCC-0200783] | > 10 | < 1 |  |
| FC(F)(F)c1ccc(CCNc2ncc(Cl)c(-n3cnc4ccccc43)n2)cc1 [NUCC-0200784] | > 10 |  | IC50 (Mnk2): 1 to 10 µM |
| N#Cc1ccc(CCNc2ncc(Cl)c(-n3cnc4ccccc43)n2)cc1 [NUCC-0200785] | > 10 | < 1 |  |
| N#Cc1cnc(Oc2ccc(Cl)cc2)nc1-n1cnc2ccccc21 [NUCC-0200787] | < 1 | < 1 |  |
| Brc1cnc(OCCc2ccncc2)nc1-n1cnc2ccccc21 [NUCC-0200789] | < 1 | < 1 |  |
| N#Cc1cnc(OCCN2CCOCC2)nc1-n1cnc2ccccc21 [NUCC-0200791] | 1 to 10 | < 1 |  |
| N#Cc1cnc(Oc2cccnc2)nc1-n1cnc2ccccc21 [NUCC-0200794] | 1 to 10 | < 1 |  |
| N#Cc1cnc(OC2CCCOC2)nc1-n1cnc2ccccc21 (stereo not drawn) [NUCC-0200795] | > 10 |  | IC50 (Mnk2): 1 to 10 µM |
| Cc1cc2ncn(-c3nc(NCCc4ccncc4)ncc3Cl)c2cc1C [NUCC-0200797] | > 10 | < 1 |  |
| O=[N+](O)c1ccc2c(c1)ncn2-c1nc(NCCc2ccncc2)ncc1Cl [NUCC-0200798] | > 10 |  | IC50 (Mnk2): 1 to 10 µM |
| COC(=O)c1ccc2c(c1)ncn2-c1nc(NCCc2ccncc2)ncc1Cl [NUCC-0200799] | 1 to 10 | < 1 |  |
| Fc1ccc2c(ncn2-c2nc(NCCc3ccncc3)ncc2Cl)c1F [NUCC-0200800] |  |  | Mnk1 inhibition IC50 (+,++,+++) (Mnk1): no activity; Mnk2 inhibition IC50 (+,++,+++) (Mnk2; ADP-Glo kinase assay): no activity |
| Clc1cnc(NCCc2ccncc2)nc1-n1nnc2ccccc21 [NUCC-0200801] | > 10 |  | IC50 (Mnk2): 1 to 10 µM |
| N#Cc1cnc(NCCc2ccncc2)nc1-n1nnc2ccccc21 [NUCC-0200802] | > 10 | > 10 |  |
| Clc1cnc(OC2CCOCC2)nc1-n1cnc2ccccc21 [NUCC-0200804] | < 1 | < 1 |  |

| Structure (SMILES) | IC50 (Mnk1; [3]) [µM] | IC50 (Mnk2; [4]) [µM] | also measured |
| --- | --- | --- | --- |
| Clc1cnc(OC2CCOC2)nc1-n1cnc2ccccc21 (stereo not drawn) [NUCC-0200805] | < 1 | < 1 |  |
| Clc1cnc(OCCN2CCOCC2)nc1-n1cnc2ccccc21 [NUCC-0200806] | 1 to 10 | < 1 |  |
| COc1ccc(Oc2ncc(Cl)c(-n3cnc4ccccc43)n2)cc1 [NUCC-0200809] |  |  | Mnk1 inhibition IC50 (+,++,+++) (Mnk1): no activity; Mnk2 inhibition IC50 (+,++,+++) (Mnk2; ADP-Glo kinase assay): no activity |
| Clc1cnc(Oc2cccnc2)nc1-n1cnc2ccccc21 [NUCC-0200810, 1-(5-chloro-2-(pyridin-3-yloxy)pyrimidin-4-yl)-1H-benzo[d]imidazole] |  |  | Mnk1 inhibition IC50 (+,++,+++) (Mnk1): no activity; Mnk2 inhibition IC50 (+,++,+++) (Mnk2; ADP-Glo kinase assay): no activity |
| N#Cc1cnc(OCc2ccccn2)nc1-n1cnc2ccccc21 [NUCC-0200902] | < 1 | < 1 |  |
| N#Cc1cnc(OCc2cccnc2)nc1-n1cnc2ccccc21 [NUCC-0200903] | < 1 | < 1 |  |
| N#Cc1cnc(OCc2ccncc2)nc1-n1cnc2ccccc21 [NUCC-0200904] | 1 to 10 |  | IC50 (Mnk2): 1 to 10 µM |
| N#Cc1cnc(OC2CCc3cccnc32)nc1-n1cnc2ccccc21 (stereo not drawn) [NUCC-0200905] | > 10 |  | IC50 (Mnk2): 1 to 10 µM |
| N#Cc1cnc(-n2cnc3ccccc32)nc1OC1CCc2cccnc21 (stereo not drawn) [NUCC-0200906] | 1 to 10 | < 1 |  |
| Cc1ccc2c(c1)ncn2-c1nc(NCCc2ccncc2)ncc1Cl [NUCC-0200908] | > 10 |  | IC50 (Mnk2): 1 to 10 µM |
| Cc1ccc2c(c1)ncn2-c1ncc(Cl)c(NCCc2ccncc2)n1 [NUCC-0200909] | < 1 | < 1 |  |
| COc1ccc2c(c1)ncn2-c1nc(NCCc2ccncc2)ncc1Cl [NUCC-0200910] | > 10 | < 1 |  |
| Clc1cnc(NCCc2ccncc2)nc1-n1ccc2c(Cl)ncnc21 [NUCC-0200911] | > 10 | > 10 |  |
| Clc1cnc(NCCCc2ccncc2)nc1-n1cnc2ccccc21 [NUCC-0200912] | > 10 |  | IC50 (Mnk2): 1 to 10 µM |
| N#Cc1cnc(NCCCc2ccncc2)nc1-n1cnc2ccccc21 [NUCC-0200913] | > 10 | > 10 |  |
| Clc1cnc(OCCC2CCNCC2)nc1-n1cnc2ccccc21 [NUCC-0201002] | < 1 | < 1 |  |
| OC1CC(Nc2ncc(Cl)c(-n3cnc4ccccc43)n2)C1 (stereo not drawn) [NUCC-0201003] | 1 to 10 |  | IC50 (Mnk2): 1 to 10 µM |
| NC1CC(Oc2ncc(Cl)c(-n3cnc4ccccc43)n2)C1 (stereo not drawn) [NUCC-0201004] | < 1 | < 1 |  |
